The NIST ThermoML archive (doi:10.1021/je400065j)
± gives the expanded uncertainty stated by the source.

Tests used:
[1] = refractive index (Na D-line) (dimensionless); conditions: 293.15 K; 101.33 kPa; Liquid; Standard Abbe refractometry
[2] = Liquid, Closed cell (Static) method

Row | refractive index [1] | vapor or sublimation pressure ([2]; 383.3 K) [kPa] | vapor or sublimation pressure ([2]; 413.2 K) [kPa] | SMILES | vapor or sublimation pressure ([2]; 398.1 K) [kPa] | vapor or sublimation pressure ([2]; 398.2 K) [kPa]
1 | 1.3618 ± 0.0007 | 315.6 ± 1.7 | 757 ± 3 | CCO [ethanol] |  | 498.3 ± 2.2
2 | 1.3287 ± 0.0007 | 480.7 ± 2.3 | 1086 ± 4.1 | CO [methanol] | 733.7 ± 3.1 | 

Row | SMILES | refractive index [1] | vapor or sublimation pressure ([2]; 383.3 K) [kPa] | vapor or sublimation pressure ([2]; 413.2 K) [kPa] | vapor or sublimation pressure ([2]; 398.1 K) [kPa] | vapor or sublimation pressure ([2]; 398.2 K) [kPa]
3 | CCC(C)=O [butanone] | 1.3788 ± 0.0007 | 245.6 ± 1.3 | 506.6 ± 1.9 | 358.5 ± 1.5 | 358.5 ± 1.5
